We go through 22 compounds from patent US8796300B2, “Therapeutic compounds” (Rutgers, the State University of New Jersey, priority 2009, dated 2014).

The term melting point denotes the temperature, or range, at which the solid turns liquid. One may read the IC50 as the concentration that gives 50% inhibition.

Some results are limits rather than exact numbers.

The subject of data set [1] is KB3-1 human epidermoid carcinoma tumor cells. The data set is described as follows: MTT cytotoxicity assay (Test B). As to conditions: KB 3-1, 96 h, cells cultured 4 days. In kind it is cell-based. The source says:
(§1) Test B. Evaluation of G-Quadruplex Stabilizers using the MTT Assay.
(§2) Cell lines are selected based upon one or more factors including data on their relative telomerase activity, varied organ sites, available comparative data, and their ability to form solid tumors in athymic nude mice. The advantage of an MTT assay is that the cytotoxic/cytostatic activities can be readily determined.
In general terms: Tetrazolium dyes change colour on reduction, which living cells bring about.

Data set [2] relates to human lymphoblastoma cell line RPMI 8402. As to the kind of experiment: MTT cytotoxicity assay (Test B). The data set is classed as cell-based. As to conditions: RPMI 8402, 96 h, cells cultured 4 days.
Excerpt: as §1, §2

The subject of the next data set is Salmon Testes Duplex DNA. The data set is described as follows: UV melting, thermal stabilization of duplex DNA (Test A). In kind it is binding. As to conditions: pH 7.5, 50 mM K+; Tm of the drug-DNA complex minus that of the DNA alone; absorbance at 260 nm. The source says:
(§3) Test A. Selective Stabilization of G-Quadruplex DNA Analyses can be performed to determine the ability of the compounds to selectively bind and thermally stabilize quadruplex relative to duplex DNA. Toward this end, the UV absorbances of the DNA molecules are monitored as a function of temperature in the absence and presence of compound. The melting of duplex DNA is generally associated with a hyperchromic shift at 260 nm, while the melting of quadruplex DNA is associated with a hypochromic shift at 295 nm. Thus, the temperature-dependent absorbances of duplex DNA are monitored at 260 nm, with the corresponding quadruplex absorbances being monitored at 295 nm. Salmon testes DNA can be used as a representative model of duplex DNA and d([…])4 can be used as a representative model of quadruplex DNA. All UV melting studies are conducted at physiological pH (7.4) in the presence of potassium ions at physiologically relevant concentrations. Representative compounds of formula I (compounds 6, 32, and 33) were evaluated for their abilities to selectively bind and stabilize G-quadruplex relative to duplex DNA. […] By contrast, none of the compounds exert any impact on the thermal stability of the DNA duplex (ΔTm=0° C. for all three compounds).

The subject of data set [3] is Human Telomeric G-Quadruplex DNA d(T2AG3)4. As to the kind of experiment: UV melting, thermal stabilization of G-quadruplex DNA (Test A). The data set is classed as binding. As to conditions: pH 7.5, 50 mM K+; Tm of the drug-DNA complex minus that of the DNA alone; absorbance at 295 nm.
Excerpt: as §3

In the case of `O=C1NCc2cc(CCNC(=O)C(F)(F)F)cc(c2)CNC(=O)c2coc(n2)-c2coc(n2)-c2cccc(n2)-c2nc(co2)-c2nc1co2` [Compound 31], the melting point was 290 °C (dec.). Besides, in data set [1], inhibition was half-maximal at 0.07 µM (IC50). Moreover, in data set [2], the midpoint of inhibition, the IC50, lay at 0.17 µM.

On to `O=C1NCc2cc(CCNC(=O)C(F)(F)F)cc(c2)CNC(=O)c2coc(n2)-c2coc(n2)-c2cc(Br)cc(n2)-c2nc(co2)-c2nc1co2` [Compound 36], for which the melting point was 305 to 307 °C (dec.). The compound also registered an IC50 in data set [1] of 4 µM. In data set [2], this compound yielded an IC50 above 10 µM.

`O=C1NCc2cccc(c2)CNC(=O)c2coc(n2)-c2coc(n2)-c2cc(Br)cc(n2)-c2nc(co2)-c2nc1co2` [Compound 28]: the melting point lay in the range of 211 to 213 °C. Moreover, inhibition in data set [1] was half-maximal at 0.15 µM (IC50). In data set [2], this compound came in with an IC50 of 0.3 µM.

Turning to `O=C(NCCc1cc2cc(c1)CNC(=O)c1coc(n1)-c1coc(n1)-c1cccc(n1)-c1nc(co1)-c1nc(co1)C(=O)NC2)OCc1ccccc1` [Compound 30], the melting point is 196 to 198 °C. In data set [1], this compound returned an IC50 of 0.12 µM. This compound also returned an IC50 in data set [2] of 0.12 µM.

For `O=C1NCc2cc(Br)cc(c2)CNC(=O)c2coc(n2)-c2coc(n2)-c2cc(Br)cc(n2)-c2nc(co2)-c2nc1co2` [Compound 34], the melting point was 250 °C (dec.). For the same compound, the IC50 in data set [1] is above 10 µM. Further, in data set [2], the IC50 was above 10 µM.

For the compound `O=C1NCCNCCNC(=O)c2coc(n2)-c2coc(n2)-c2cccc(n2)-c2nc(co2)-c2nc1co2` [Compound 8], the melting point is 276 °C (dec.). For the same compound, the IC50 in data set [1] is 4 µM. Further, the IC50 in data set [2] was above 10 µM.

In the case of `O=C1NCc2cccc(n2)CNC(=O)c2coc(n2)-c2coc(n2)-c2cccc(n2)-c2nc(co2)-c2nc1co2` [Compound 7], the melting point is 330 °C (dec.). In data set [1], this compound registered an IC50 above 5 µM. For the same compound, in data set [2], the IC50 was above 5 µM.

As for `O=C1NCc2cc(Br)cc(c2)CNC(=O)c2coc(n2)-c2coc(n2)-c2cc(OCCCN3C(=O)c4ccccc4C3=O)cc(n2)-c2nc(co2)-c2nc1co2` [Compound 44], the melting point is 289 to 290 °C (dec.). Further, inhibition in data set [1] was half-maximal at 1 µM (IC50). In data set [2], this compound returned an IC50 of 1 µM.

In turn, `O=C(NCCc1cc2cc(c1)CNC(=O)c1coc(n1)-c1coc(n1)-c1cc(OCCCN3C(=O)c4ccccc4C3=O)cc(n1)-c1nc(co1)-c1nc(co1)C(=O)NC2)OCc1ccccc1` [Compound 45] had a melting point of 167 to 170 °C. In data set [1], this compound showed an IC50 above 10 µM. In data set [2], the concentration for half-maximal inhibition (IC50) is above 10 µM.

As to `CN(C)c1cc2cc(c1)CNC(=O)c1coc(n1)-c1coc(n1)-c1cccc(n1)-c1nc(co1)-c1nc(co1)C(=O)NC2` [Compound 48], the IC50 in data set [1] turned out to be 0.03 µM; in data set [2], 0.06 µM.

In turn, `O=C1NCc2cccc(c2)CNC(=O)c2coc(n2)-c2csc(n2)-c2cccc(n2)-c2nc(cs2)-c2nc1co2` [Compound 22] had a melting point of 245 °C. Moreover, the IC50 in data set [1] is above 10 µM. Moreover, in data set [2], the half-maximal inhibitory concentration (IC50) was above 10 µM.

Turning to `NCCCOc1cc2nc(c1)-c1nc(co1)-c1nc(co1)C(=O)NCc1cccc(c1)CNC(=O)c1coc(n1)-c1coc-2n1` [Compound 46], the melting point was 237 to 239 °C (dec.). Moreover, the IC50 in data set [1] worked out at 3 µM. In data set [2], this compound gave an IC50 of 5 µM.

As to `O=C1NCc2cccc(c2)CNC(=O)c2coc(n2)-c2coc(n2)-c2cccc(n2)-c2nc(co2)-c2nc1co2` [Compound 6], the melting point was 320 to 324 °C (dec.). Further, in the data set with Salmon Testes Duplex DNA, the “Salmon Testes Duplex DNA ΔTm” value came to 0 °C. Also, in data set [3], the “Human Telomeric G-Quadruplex DNA ΔTm” value came out at 20.5 °C. The compound also showed an IC50 in data set [1] of 1.2 µM. Also, in data set [2], the IC50 was 1.05 µM.

For `CC(=O)NCCCOc1cc2nc(c1)-c1nc(co1)-c1nc(co1)C(=O)NCc1cccc(c1)CNC(=O)c1coc(n1)-c1coc-2n1` [Compound 47], the IC50 was 10 µM in data set [1] and above 10 µM in data set [2].

Regarding `O=C(NCCc1cc2cc(c1)CNC(=O)c1coc(n1)-c1coc(n1)-c1cc(Br)cc(n1)-c1nc(co1)-c1nc(co1)C(=O)NC2)OCc1ccccc1` [Compound 35], the melting point lay within 204 to 205 °C. In data set [1], this compound came in with an IC50 of 0.6 µM. In addition, the IC50 in data set [2] turned out to be 1 µM.

In turn, `O=C1NCc2cc(Br)cc(c2)CNC(=O)c2coc(n2)-c2coc(n2)-c2cccc(n2)-c2nc(co2)-c2nc1co2` [Compound 29] displayed a melting point of 248 to 250 °C. Half-maximal inhibition in data set [1] (IC50) required 0.06 µM. Inhibition in data set [2] was half-maximal at 0.3 µM (IC50).

With `O=C1NCc2cccc(c2)CNC(=O)c2coc(n2)-c2csc(n2)-c2cccc(n2)-c2nc(co2)-c2nc1co2` [Compound 14], the melting point was 274 to 275 °C (dec.). Besides, 0.26 µM corresponded to half-maximal inhibition in data set [1] (IC50). Further, the IC50 in data set [2] stood at 1 µM.

On to `O=C1NCc2cccc(c2)CNC(=O)c2coc(n2)-c2coc(n2)-c2cc(OCCCN3C(=O)c4ccccc4C3=O)cc(n2)-c2nc(co2)-c2nc1co2` [Compound 43], for which the melting point was 249 to 252 °C (dec.). Also, the IC50 in data set [1] turned out to be 0.4 µM. Moreover, the IC50 in data set [2] was 4.5 µM.

With `CN(C)CCc1cc2cc(c1)CNC(=O)c1coc(n1)-c1coc(n1)-c1cccc(c1)-c1nc(co1)-c1nc(co1)C(=O)NC2` [Compound 61], the IC50 in data set [1] came out at 0.4 µM; in data set [2] it was 2 µM.

For `CC(C)(C)OC(=O)NCCc1cc2cc(c1)CNC(=O)c1coc(n1)-c1coc(n1)-c1cccc(c1)-c1nc(co1)-c1nc(co1)C(=O)NC2` [Compound 59], the IC50 in data set [1] is 3.1 µM; in data set [2] it was 3.6 µM.

As to `NCCc1cc2cc(c1)CNC(=O)c1coc(n1)-c1coc(n1)-c1cccc(n1)-c1nc(co1)-c1nc(co1)C(=O)NC2` [Compound 32], the melting point was 277 to 280 °C (dec.). The compound further showed an IC50 in data set [1] of 0.03 µM. The same compound had an IC50 in data set [2] of 0.09 µM.

As for `CN(C)CCc1oc2nc1C(=O)NCc1cccc(c1)CNC(=O)c1nc(oc1CCN(C)C)-c1coc(n1)-c1cccc(n1)-c1nc-2co1` [Compound 78], the IC50 in data set [1] stood at 0.1 µM; in data set [2], 0.2 µM.
